This assay concerns cholesterol in blood. Description: Reduction of blood cholesterol in rats fed a cholesterol diet. In kind it is in vivo. The conditions noted are these: male rats, 3 days, relative value: control group = 0, normal group = 100, * 5%, ** 1% significance over control; for % Inhibition (blood cholesterol), Dose in Diet 0.03%: 0.03% test compound in diet with 1% cholesterol and 0.25% sodium cholate; for % Inhibition (blood cholesterol), Dose in Diet 0.1%: 0.1% test compound in diet with 1% cholesterol and 0.25% sodium cholate. The procedure: A completely synthetic diet containing 1% of cholesterol, 0.25% of sodium cholate and 0.03% and 0.1% of the test compound is given to a group of 6 male rats having a body weight of about 50 g consecutively for 3 days, and the rats are fasted overnight. Then, the rats are decapitated, and their blood is collected to determine the cholesterol concentration in the collected blood. The concentration of cholesterol in blood is measured with Technicon Autoanalyzer (Technicon Laboratory: Method File N-24a).
Each value shown in the Table is a relative value determined based on the supposition that the value of the control group (the cholesterol-administered group) is 0 and the value of the normal group (the non-cholestero-administered group) is 100.

In the case of N-Benzyldihydroabietamide, the “% Inhibition (blood cholesterol), Dose in Diet 0.03%” value came to 25% and the “% Inhibition (blood cholesterol), Dose in Diet 0.1%” value is listed as 64%.
Taken in the same sequence, the figures for N-α-Phenylethyldihydroabietamide were 71% and 99%.
For `CC(C)C1=CC2=CC[C@@H]3[C@](C)(CCC[C@@]3(C)C(=O)NC3CCCC3)[C@H]2CC1` [N-Cyclopentylabietamide], in that order: 11% and 32%.
As to N-Methyl-N-phenyldihydroabietamide, the “% Inhibition (blood cholesterol), Dose in Diet 0.03%” value is -8% and the “% Inhibition (blood cholesterol), Dose in Diet 0.1%” value turned out to be 27%.
